Measurements reported in DBAASP.
≈ marks a conversion by molar mass, not a printed value.

Tests used:
Test in all cases: ≥ marks a high value that may be exact or a test limit, other limits are often not marked, values filed in µg/mL are converted to µM
Staphylococcus aureus = system: Staphylococcus aureus
[1] = system: Escherichia coli ATCC 25922
[2] = system: Pseudomonas aeruginosa ATCC 27853
[3] = system: Staphylococcus aureus ATCC 29213
Escherichia coli = system: Escherichia coli
Pseudomonas aeruginosa = system: Pseudomonas aeruginosa
[4] = system: Staphylococcus aureus ATCC 25923

Row | MIC [1] [µM] | MIC [2] [µM] | MIC [3] [µM] | Structure (SMILES) | other results
1 | – | – | – | CC[C@H](C)[C@H](NC(=O)[C@H](C)NC(=O)[C@H](CO)NC(=O)[C@H](CC(C)C)NC(=O)[C@@H](N)Cc1ccccc1)C(=O)N[C@@H](C)C(=O)N[C@@H](CO)C(=O)N[C@@H](CCSC)C(=O)N[C@@H](CC(C)C)C(=O)NCC(=O)N[C@@H](CCCCN)C(=O)N[C@@H](Cc1ccccc1)C(=O)N[C@@H](CC(C)C)C(=O)O [FLSAIASMLGKFL] | MIC (Staphylococcus aureus): 200 µM (≈ 280 µg/mL)
2 | > 160 | > 160 | > 160 | NCC(=O)N[C@@H](CCCN=C(N)N)C(=O)N[C@@H](CCCN=C(N)N)C(=O)N1CCC[C@H]1C(=O)N[C@@H](CCCN=C(N)N)C(=O)N1CCC[C@H]1C(=O)N[C@@H](CCCN=C(N)N)C(=O)N1CCC[C@H]1C(=O)N[C@@H](CCCN=C(N)N)C(=O)N1CCC[C@H]1C(N)=O [GRRPRPRPRP] | –
3 | 1.63 (≈ 2 µg/mL) | 3.26 (≈ 4 µg/mL) | > 52.2 | CC[C@H](C)[C@H](NC(=O)[C@H](CCCCN)NC(=O)[C@H](CCCN=C(N)N)NC(=O)[C@@H](N)CCC(N)=O)C(=O)N[C@@H](CCCN=C(N)N)C(=O)N[C@H](C(=O)N[C@@H](CCCN=C(N)N)C(=O)N[C@@H](CC(C)C)C(=O)N[C@@H](CO)C(=O)N[C@@H](C)C(=O)O)C(C)C [QRKIRVRLSA] | –
4 | – | – | – | CC[C@H](C)[C@H](NC(=O)CNC(=O)[C@H](CO)NC(=O)[C@H](CC(C)C)NC(=O)[C@@H](NC(=O)CN)[C@@H](C)CC)C(=O)N[C@@H](CC(C)C)C(=O)NCC(=O)N[C@@H](CCSC)C(=O)NCC(=O)N[C@@H](CCCCN)C(=O)N[C@@H](CCCCN)C(=O)N[C@@H](CC(C)C)C(=O)N[C@H](C(=O)N[C@H]1CSSC[C@@H](C(=O)O)NC(=O)[C@H](CC(C)C)NC(=O)CNC(=O)[C@H](CO)NC(=O)[C@H](CC(C)C)NC(=O)CNC1=O)C(C)C [GILSGILGMGKKLVCGLSGLC] | MIC (Escherichia coli): 15 µM (≈ 30.3 µg/mL); MIC (Staphylococcus aureus): 50 µM (≈ 101 µg/mL)
5 | 5 (≈ 9.18 µg/mL) | – | > 40 | CC(C)C[C@H](NC(=O)[C@H](CCCCN)NC(=O)[C@H](CC(C)C)NC(=O)[C@H](CC(C)C)NC(=O)[C@H](CCCCN)NC(=O)[C@H](CCCCN)NC(=O)[C@H](CCC(=O)O)NC(=O)[C@H](CC(C)C)NC(=O)[C@H](CCCCN)NC(=O)[C@H](CC(C)C)NC(=O)[C@H](CC(C)C)NC(=O)[C@H](CCCCN)NC(=O)[C@H](CCCCN)NC(=O)[C@@H](N)CC(C)C)C(=O)N[C@@H](C)C(=O)NCC(=O)O [LKKLLKLEKKLLKLAG] | –
6 | 5 (≈ 8.51 µg/mL) | – | 2.5 (≈ 4.26 µg/mL) | CC(=O)N[C@@H](CC(C)C)C(=O)N[C@@H](CCCCN)C(=O)N[C@@H](CCCCN)C(=O)N[C@@H](CC(C)C)C(=O)N[C@@H](CC(C)C)C(=O)N[C@@H](CCCCN)C(=O)N[C@@H](CC(C)C)C(=O)N[C@@H](CC(C)C)C(=O)N[C@@H](CCCCN)C(=O)N1CCC[C@H]1C(=O)N[C@@H](CC(C)C)C(=O)N[C@@H](CC(C)C)C(=O)N[C@@H](CCCCN)C(=O)N[C@@H](CC(C)C)C(N)=O [LKKLLKLLKPLLKL] | –
7 | 12.8 (≈ 16 µg/mL) | 51 (≈ 64 µg/mL) | > 51 | CC[C@H](C)[C@H](NC(=O)[C@H](CCCN=C(N)N)NC(=O)[C@H](CCCN=C(N)N)NC(=O)[C@@H](N)CCC(N)=O)C(=O)N[C@@H](CCCN=C(N)N)C(=O)N[C@H](C(=O)N[C@@H](CCCN=C(N)N)C(=O)N[C@@H](CC(C)C)C(=O)N[C@@H](CO)C(=O)N[C@@H](C)C(=O)O)C(C)C [QRRIRVRLSA] | –
8 | – | – | – | CC(C)C[C@H](NC(=O)[C@H](CCCN=C(N)N)NC(=O)CNC(=O)CNC(=O)[C@@H](N)CCCN=C(N)N)C(=O)N[C@H]1CSSC[C@@H](C(=O)N[C@@H](CCC(=O)O)C(=O)O)NC(=O)[C@H](C(C)C)NC(=O)[C@@H]2CSSC[C@H](NC(=O)[C@H](Cc3ccc(O)cc3)NC1=O)C(=O)N[C@@H](CCCN=C(N)N)C(=O)N[C@@H](CCCN=C(N)N)C(=O)N[C@@H](CCCN=C(N)N)C(=O)N[C@@H](Cc1ccccc1)C(=O)N2 [RGGRLCYCRRRFCVCE] | MIC (Escherichia coli): 0.303 µM (≈ 0.599 µg/mL)
9 | 20 (≈ 34.3 µg/mL) | – | 28.3 (≈ 48.6 µg/mL) | CC(=O)N[C@@H](CCCCN)C(=O)N[C@@H](CC(C)C)C(=O)N[C@@H](CC(C)C)C(=O)N[C@@H](CCCCN)C(=O)N1CCC[C@H]1C(=O)N[C@@H](CC(C)C)C(=O)N[C@@H](CCCCN)C(=O)N[C@@H](CCCCN)C(=O)N[C@@H](CC(C)C)C(=O)N[C@@H](CC(C)C)C(=O)N[C@@H](CCCCN)C(=O)N[C@@H](CC(C)C)C(=O)N[C@@H](CC(C)C)C(=O)N[C@@H](CCCCN)C(N)=O [KLLKPLKKLLKLLK] | –
10 | 2.5 (≈ 4.49 µg/mL) | – | 10 (≈ 17.9 µg/mL) | CC(C)C[C@H](NC(=O)[C@H](CCCCN)NC(=O)[C@H](CC(C)C)NC(=O)[C@H](CC(C)C)NC(=O)[C@H](CCCCN)NC(=O)[C@H](CCCCN)NC(=O)[C@H](CO)NC(=O)[C@H](CC(C)C)NC(=O)[C@H](CCCCN)NC(=O)[C@H](CC(C)C)NC(=O)[C@H](CC(C)C)NC(=O)[C@H](CCCCN)NC(=O)[C@H](CCCCN)NC(=O)[C@@H](N)CC(C)C)C(=O)N[C@@H](C)C(=O)NCC(=O)O [LKKLLKLSKKLLKLAG] | –
11 | – | – | – | CC[C@H](C)[C@H](NC(=O)[C@H](Cc1ccccc1)NC(=O)[C@H](CO)NC(=O)[C@H](CCCCN)NC(=O)[C@H](Cc1c[nH]c2ccccc12)NC(=O)[C@@H](N)CCCCN)C(=O)N[C@@H](CC(N)=O)C(=O)N[C@@H](CCCCN)C(=O)N[C@@H](CC(C)C)C(=O)N[C@H](C(=O)N[C@@H](CO)C(=O)N[C@@H](CCCCN)C(=O)N[C@@H](Cc1ccccc1)C(=O)N[C@@H](CC(C)C)C(=O)N[C@@H](Cc1cnc[nH]1)C(=O)N[C@@H](CO)C(=O)N[C@@H](C)C(=O)N[C@@H](CCCCN)C(=O)N[C@@H](CCCCN)C(=O)N[C@@H](Cc1ccccc1)C(N)=O)[C@@H](C)O [KWKSFINKLTSKFLHSAKKF] | MIC (Pseudomonas aeruginosa): 5.13 µM (≈ 12.5 µg/mL)
12 | 5.91 (≈ 9.99 µg/mL) | 11.8 (≈ 20 µg/mL) | – | C[C@H](NC(=O)[C@H](Cc1c[nH]c2ccccc12)NC(=O)[C@H](CCCN=C(N)N)NC(=O)[C@H](Cc1c[nH]c2ccccc12)NC(=O)[C@H](C)NC(=O)[C@H](CCCN=C(N)N)NC(=O)[C@@H](N)Cc1ccc(O)cc1)C(=O)N[C@@H](Cc1c[nH]c2ccccc12)C(=O)N[C@@H](CCCN=C(N)N)C(=O)N[C@@H](Cc1c[nH]c2ccccc12)C(=O)N[C@@H](CCCN=C(N)N)C(N)=O [YRAWRWAWRWR] | MIC [4]: 1.48 µM (≈ 2.5 µg/mL)
13 | 10.1 (≈ 15.9 µg/mL) | – | 40.5 (≈ 63.9 µg/mL) | CC[C@H](C)[C@H](NC(=O)[C@H](CC(=O)O)NC(=O)[C@H](CC(C)C)NC(=O)[C@@H](NC(=O)CN)C(C)C)C(=O)N[C@@H](CC(C)C)C(=O)N[C@@H](CCCCN)C(=O)NCC(=O)N[C@@H](C)C(=O)N[C@@H](C)C(=O)N[C@@H](CCCCN)C(=O)N[C@@H](CC(=O)O)C(=O)N[C@@H](CC(C)C)C(=O)N[C@@H](C)C(=O)NCC(=O)N[C@@H](Cc1cnc[nH]1)C(=O)O [GVLDILKGAAKDLAGH] | –
14 | 3.88 (≈ 8 µg/mL) | 62 (≈ 128 µg/mL) | 7.75 (≈ 16 µg/mL) | CC(C)C[C@H](NC(=O)CNC(=O)[C@H](C)NC(=O)[C@H](CC(C)C)NC(=O)[C@H](CCCCN)NC(=O)[C@H](CCCCN)NC(=O)[C@H](C)NC(=O)[C@H](CC(C)C)NC(=O)CNC(=O)[C@H](C)NC(=O)[C@H](CC(C)C)NC(=O)[C@H](CCCCN)NC(=O)[C@H](CCCCN)NC(=O)[C@H](C)NC(=O)[C@H](CC(C)C)NC(=O)CNC(=O)[C@H](C)NC(=O)[C@H](CC(C)C)NC(=O)[C@@H](N)CCCCN)C(=O)N[C@@H](C)C(=O)N[C@@H](CCCCN)C(N)=O [KLAGLAKKLAGLAKKLAGLAK] | –
